Assay results: patent publication US12642857B2, “Degradation of AKT by conjugation of ATP-competitive AKT inhibitor GDC-0068 with E3 ligase ligands and methods of use” (DANA-FARBER CANCER INSTITUTE, INC., priority 2019, dated 2026)

Experiments:
phosphorylated PRAS40 [1] = test: Immunoblot of phosphorylated PRAS40 in MDA-MB-468 cells; format: cell-based, human; details: 24-hour treatment
Method: (§1) MDA-MB-468 (human breast cancer cell line) cells were maintained in RPMI 1640 (Wisent Bioproducts) supplemented with 10% FBS (Thermo Fisher Scientific) and MCF10A (human breast epithelial cell line) cells were maintained in Dulbecco's modified Eagle's medium (DMEM)/Ham's F12 (Wisent Bioproducts) supplemented with 5% equine serum (Fisher), insulin (10 μg/ml) (Life Technologies), hydrocortisone (500 ng/ml) (Sigma-Aldrich®), epidermal growth factor (20 ng/ml) (R&D Systems), and cholera toxin (100 ng/ml) (List Biological Lab). MDA-MB-468 and MCF10A cells were seeded at 250,000 cells/mL and 200,000 cells/mL, respectively. The following day cells were treated with inventive bifunctional compounds. After 24 hours, cells were washed with phosphate-buffered saline at 4° C. and lysed in radioimmunoprecipitation assay (RIPA) buffer (150 mM Tris-HCl, 150 mM NaCl, 0.5% (w/v) sodium deoxycholate, 1% (v/v) NP-40, pH 7.5) containing 0.1% (w/v) sodium dodecyl sulfate, 1 mM sodium pyrophosphate, 20 mM sodium fluoride, 50 nM calyculin, and 0.5% (v/v) protease inhibitor cocktail (Sigma-Aldrich®)). Cell extracts were precleared by centrifugation at 14,000 rpm for 10 minutes at 4° C. The Bio-Rad DC protein assay was used to assess protein concentration, and sample concentration was normalized using SDS sample buffer. […] Images were stored and analyzed using ImageStudioTM (LI-COR®) software.

phosphorylated PRAS40 [2] = test: Immunoblot of phosphorylated PRAS40 in MCF10A cells; format: cell-based, human; details: 24-hour treatment
Method: as §1, with “software. […]” for “software.”

ZR-75-1 cells = test: Growth inhibition rate (GR) assay in ZR-75-1 cells; format: cell-based; details: 72-hour treatment (FIG. 6A)
Description: (§2) FIG. 6A-FIG. 6F are a set of graphs that show growth inhibition rate (GR) values across concentrations in ZR-75-1 (FIG. 6A), T47D (FIG. 6B), LNCaP (FIG. 6C), MCF-7 (FIG. 6D), MDA-MB-468 (FIG. 6E), and HCC1937 (FIG. 6F) cells after 72-hour treatment with GDC-0068 (blue), inventive bifunctional compound 10 (red), bifunctional compound 10-Me (negative control) (green), and lenalidomide (orange). Error bars represent the standard deviation of three technical replicates.

[3] = tested on: phospho-PRAS40 (T246), phospho-GSK3I3 (S9), phospho-S6 (S240/244); test: Immunoblot of downstream signaling (pPRAS40, pGSK3, pS6) in T47D and MDA-MB-468 cells; format: cell-based, human
Method: Solid vertical white line indicates samples run on separate gels. […] Solid vertical white line indicates samples run on separate gels. Cells were plated at 250,000 cells per mL (MDA-MB-468, MOLT4, IGROV1, PC3, and Jurkat) or 200,000 cells per mL (T47D) in 2 mL per well of RPMI or DMEM media with 10% serum in 6-well treated tissue culture plates (Greiner, Cat #TCG-657160) or 60 mm treated tissue culture plates (Corning®, Cat #430166) and incubated overnight. The next day, cells were treated with the indicated compounds at the appropriate concentration and protein lysates were harvested at the times specified. Cells were washed once in 1×PBS then lysed in RIPA buffer (150 mM Tris-HCl, 150 mM NaCl, 0.5% (w/v) sodium deoxycholate, 1% (v/v) NP-40, pH 7.5) containing 0.1% (w/v) sodium dodecyl sulfate, 1 mM sodium pyrophosphate, 20 mM sodium fluoride, 50 nM calyculin, and 0.5% (v/v) protease inhibitor cocktail (Sigma-Aldrich®) for 15 minutes. Cell extracts were precleared by centrifugation at 14,000 rpm for 10 minutes at 4° C. The Bio-Rad DC protein assay was used to assess protein concentration, and sample concentration was normalized using SDS sample buffer. Lysates were resolved on acrylamide gels by SDS-polyacrylamide gel electrophoresis and electrophoretically transferred to nitrocellulose membrane (BioRad) at 100 volts for 90 minutes. Membranes were blocked in 5% (w/v) nonfat dry milk in tris-buffered saline (TBS) buffer for 1 hour then incubated with specific primary antibodies diluted in 5% (w/v) nonfat dry milk in TBS-T (TBS with 0.05% Tween®-20) at 4° C. overnight, shaking. The next day, membranes were washed with TBS-T then incubated for 1 hour at room temperature with fluorophore-conjugated secondary antibodies (LI-COR® Biosciences). The membrane was washed again with TBS-T then imaged with a LI-COR® Odyssey® CLx Imaging System (LI-COR® Biosciences).

[4] = tested on: ZR-75-1, T47D, LNCaP, MCF-7 cells; test: Growth inhibition rate (GR) assay in cell lines sensitive to AKT inhibition; format: cell-based; details: MCF-7, 72-hour treatment (FIG. 6A-6D)
Description: as §2

[5] = T47D and MDA-MB-468 cells, 250 nM (FIG. 7C-7D)

Compound | Phosphorylated PRAS40 signal (phosphorylated PRAS40 [1]) | Phosphorylated PRAS40 signal (phosphorylated PRAS40 [2]) | GR50 (ZR-75-1 cells) | Duration of reduction of pPRAS40 levels [3, 5] | Inhibition of pPRAS40 compared with compound 10 [3, 5] | Phosphorylation of PRAS40, GSK3I3 and S6 ([3]; T47D and MDA-MB-468 cells, 250 nM, 24 hours (FIG. 7A-7B)) | pPRAS40 levels after compound washout ([3]; T47D or MDA-MB-468 cells, 12 h treatment at 250 nM, then washout (FIG. 7E-7F)) | Anti-proliferative effects [4]
CC(C)NC[C@@H](C(=O)N1CCN(c2ncnc3c2[C@H](C)C[C@H]3O)CC1)c1ccc(Cl)cc1 [GDC-0068] | reduction of phosphorylated proline-rich AKT substrate of 40 kDa (PRAS40) signal | reduction of phosphorylated PRAS40 signal | comparable GR50 value | shorter | less-pronounced inhibition of pPRAS40 | weaker responses | rebound of pPRAS40 | 
Nc1cccc2c1CN(C1CCC(=O)NC1=O)C2=O (centres unmarked) [lenalidomide] |  |  |  |  |  |  |  | did not have strong anti-proliferative effects
